Among the data in patent US20250263753A1, “BRIDGED CYCLE-BASED INHIBITORS OF DNA-DEPENDENT PROTEIN KINASE AND COMPOSITIONS AND APPLICATION IN GENE EDITING” (Juno Therapeutics, Inc., priority 2023, published 2025) are IC50 values, retold here.

A word on the IC50: it is the point on the concentration scale where inhibition reaches its midpoint.

Where two headings read alike, the source gives them in different places.

The target of one assay is PI3Kβ (Homo sapiens (Human), UniProt P42338). The assay is described as follows: PI3Kβ biochemical assay (Reaction Biology ADP-Glo). Conditions: class symbol. On the procedure:
Phosphoinositide 3-kinase R (PI3KP) Biochemical Assay using Reaction Biology's ADP-Glo Assay Platform:
Step 1: Lipid kinases: Reaction Biology Corporation (RBC) currently offers lipid kinases in ADP-Glo format
Step 2: Assay Description Assay principle: The kinase reactions utilize ATP and produce ADP as a byproduct. The ADP production is quantified by ADP-Glo luminescence detection. This is a 3-step reaction: First, the kinase reaction with lipid substrate is carried out in the presence of ATP, and the reaction is quenched and depleted remaining ATP with ADP-Glo™ reagent, and then finally ADP is converted to ATP which is measured using a luciferase/luciferin reaction.
Step 3: Assay Procedure: 1. Prepare kinase in freshly prepared Reaction Buffer, kinase without substrate is delivered to background wells; 2. Deliver substrate into the kinase solution and gently mix, deliver to assay wells; 3. Deliver compounds in 100% DMSO into the kinase reaction mixture by Acoustic technology (Echo550; nanoliter range), incubate for 20 min at room temperature; 4. Deliver ATP into the reaction mixture to initiate the reaction; 5. Incubate for 60 min at 30° C.; 6. Quench the reaction with ADP-Glo reagent and incubate for 40 min; 7. Add Detection Mixture and incubate for 30 min; 8. Measure luminescence.
Step 4: Data Analysis: The luminescence is converted into M ADP production based on ADP standard curves. The nonlinear regression to obtain the standard curve and IC50 values are performed using Graphpad Prism software.
In general terms: ADP-Glo turns the ADP formed in a reaction into a luminescent signal.

Assay [1] has as its target PI3Kδ (His-PIK3CD/PIK3R1, p110 delta/p85 alpha) (Homo sapiens (Human), UniProt O00329). The assay is described as follows: PI3Kδ biochemical assay (HTRF/FRET probe). It is filed as binding. As to the method: Phosphoinositide 3-kinase (PI3K) Biochemical Assay: A solution was prepared containing 0.2 nM Anti-HIS-Terbium (Cisbio, 64CUSTAZU), 40 nM designed-probe and 1.0 nM His-PIK3CD/PIK3R1 (p110 delta/p85 alpha) in FRET Buffer (20 mM HEPES, 10 mM MgCl2, 0.015% Brij-35, 4 mM DTT, 0.05 mg/mL BSA).
A general note: TR-FRET usually uses a lanthanide donor and a delayed reading to cut background.

The next assay deals with ATM (Homo sapiens (Human), UniProt Q13315). Put plainly: ATM biochemical assay (Reaction Biology HTRF kinase assay, 10 μM ATP). The gist of the method:
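HTRF kinase assay with N-terminal GST-tagged human p53 (aa2-393) substrate, 10 μM ATP, in 50 mM Hepes pH 7.5, 10 mM MnCl2, 1% DMSO. Enzyme preincubated with compound 30 min, reaction 2 h at room temperature. pS15 phosphorylation read by Eu-cryptate anti-p53-pS15/anti-GST-d2 HTRF (615/665 nm).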

The target in a further assay is DNA-PK (Homo sapiens (Human), UniProt P78527). The assay is described as follows: DNA-PK biochemical assay (Reaction Biology HotSpot kinase assay, 10 μM ATP). The gist of the method:
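Radiometric 33P-ATP kinase reaction in 20 mM Hepes pH 7.5, 10 mM MgCl2, 1 mM EGTA, 2 mM DTT, 1% DMSO. Compound preincubated with kinase and substrate 20 min at room temperature, then reaction run 2 h at room temperature after ATP addition. Activity read by P81 filter binding.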

Assay [2] has as its target PI3Kα (His-PIK3CA/PIK3R1, p110 alpha/p85 alpha) (Homo sapiens (Human), UniProt P42336). Put plainly: PI3Kα biochemical assay (HTRF/FRET probe). It is filed as binding. As to the method:
Phosphoinositide 3-kinase α (PI3Kα) Biochemical Assay: A solution was prepared containing 0.2 nM Anti-HIS-Terbium (Cisbio, 64CUSTAZU), 3.7 nM designed-probe and 1.0 nM His-PIK3CA/PIK3R1 (p110 alpha/p85 alpha) in FRET Buffer (20 mM HEPES, 10 mM MgCl2, 0.015% Brij-35, 4 mM DTT, 0.05 mg/mL BSA).

[3] abbreviates: read-out: DNA-PK HotSpot 10 μM ATP IC50, class symbol.

ATM, sequence (Q13315 whole entry, the tested form may be a part): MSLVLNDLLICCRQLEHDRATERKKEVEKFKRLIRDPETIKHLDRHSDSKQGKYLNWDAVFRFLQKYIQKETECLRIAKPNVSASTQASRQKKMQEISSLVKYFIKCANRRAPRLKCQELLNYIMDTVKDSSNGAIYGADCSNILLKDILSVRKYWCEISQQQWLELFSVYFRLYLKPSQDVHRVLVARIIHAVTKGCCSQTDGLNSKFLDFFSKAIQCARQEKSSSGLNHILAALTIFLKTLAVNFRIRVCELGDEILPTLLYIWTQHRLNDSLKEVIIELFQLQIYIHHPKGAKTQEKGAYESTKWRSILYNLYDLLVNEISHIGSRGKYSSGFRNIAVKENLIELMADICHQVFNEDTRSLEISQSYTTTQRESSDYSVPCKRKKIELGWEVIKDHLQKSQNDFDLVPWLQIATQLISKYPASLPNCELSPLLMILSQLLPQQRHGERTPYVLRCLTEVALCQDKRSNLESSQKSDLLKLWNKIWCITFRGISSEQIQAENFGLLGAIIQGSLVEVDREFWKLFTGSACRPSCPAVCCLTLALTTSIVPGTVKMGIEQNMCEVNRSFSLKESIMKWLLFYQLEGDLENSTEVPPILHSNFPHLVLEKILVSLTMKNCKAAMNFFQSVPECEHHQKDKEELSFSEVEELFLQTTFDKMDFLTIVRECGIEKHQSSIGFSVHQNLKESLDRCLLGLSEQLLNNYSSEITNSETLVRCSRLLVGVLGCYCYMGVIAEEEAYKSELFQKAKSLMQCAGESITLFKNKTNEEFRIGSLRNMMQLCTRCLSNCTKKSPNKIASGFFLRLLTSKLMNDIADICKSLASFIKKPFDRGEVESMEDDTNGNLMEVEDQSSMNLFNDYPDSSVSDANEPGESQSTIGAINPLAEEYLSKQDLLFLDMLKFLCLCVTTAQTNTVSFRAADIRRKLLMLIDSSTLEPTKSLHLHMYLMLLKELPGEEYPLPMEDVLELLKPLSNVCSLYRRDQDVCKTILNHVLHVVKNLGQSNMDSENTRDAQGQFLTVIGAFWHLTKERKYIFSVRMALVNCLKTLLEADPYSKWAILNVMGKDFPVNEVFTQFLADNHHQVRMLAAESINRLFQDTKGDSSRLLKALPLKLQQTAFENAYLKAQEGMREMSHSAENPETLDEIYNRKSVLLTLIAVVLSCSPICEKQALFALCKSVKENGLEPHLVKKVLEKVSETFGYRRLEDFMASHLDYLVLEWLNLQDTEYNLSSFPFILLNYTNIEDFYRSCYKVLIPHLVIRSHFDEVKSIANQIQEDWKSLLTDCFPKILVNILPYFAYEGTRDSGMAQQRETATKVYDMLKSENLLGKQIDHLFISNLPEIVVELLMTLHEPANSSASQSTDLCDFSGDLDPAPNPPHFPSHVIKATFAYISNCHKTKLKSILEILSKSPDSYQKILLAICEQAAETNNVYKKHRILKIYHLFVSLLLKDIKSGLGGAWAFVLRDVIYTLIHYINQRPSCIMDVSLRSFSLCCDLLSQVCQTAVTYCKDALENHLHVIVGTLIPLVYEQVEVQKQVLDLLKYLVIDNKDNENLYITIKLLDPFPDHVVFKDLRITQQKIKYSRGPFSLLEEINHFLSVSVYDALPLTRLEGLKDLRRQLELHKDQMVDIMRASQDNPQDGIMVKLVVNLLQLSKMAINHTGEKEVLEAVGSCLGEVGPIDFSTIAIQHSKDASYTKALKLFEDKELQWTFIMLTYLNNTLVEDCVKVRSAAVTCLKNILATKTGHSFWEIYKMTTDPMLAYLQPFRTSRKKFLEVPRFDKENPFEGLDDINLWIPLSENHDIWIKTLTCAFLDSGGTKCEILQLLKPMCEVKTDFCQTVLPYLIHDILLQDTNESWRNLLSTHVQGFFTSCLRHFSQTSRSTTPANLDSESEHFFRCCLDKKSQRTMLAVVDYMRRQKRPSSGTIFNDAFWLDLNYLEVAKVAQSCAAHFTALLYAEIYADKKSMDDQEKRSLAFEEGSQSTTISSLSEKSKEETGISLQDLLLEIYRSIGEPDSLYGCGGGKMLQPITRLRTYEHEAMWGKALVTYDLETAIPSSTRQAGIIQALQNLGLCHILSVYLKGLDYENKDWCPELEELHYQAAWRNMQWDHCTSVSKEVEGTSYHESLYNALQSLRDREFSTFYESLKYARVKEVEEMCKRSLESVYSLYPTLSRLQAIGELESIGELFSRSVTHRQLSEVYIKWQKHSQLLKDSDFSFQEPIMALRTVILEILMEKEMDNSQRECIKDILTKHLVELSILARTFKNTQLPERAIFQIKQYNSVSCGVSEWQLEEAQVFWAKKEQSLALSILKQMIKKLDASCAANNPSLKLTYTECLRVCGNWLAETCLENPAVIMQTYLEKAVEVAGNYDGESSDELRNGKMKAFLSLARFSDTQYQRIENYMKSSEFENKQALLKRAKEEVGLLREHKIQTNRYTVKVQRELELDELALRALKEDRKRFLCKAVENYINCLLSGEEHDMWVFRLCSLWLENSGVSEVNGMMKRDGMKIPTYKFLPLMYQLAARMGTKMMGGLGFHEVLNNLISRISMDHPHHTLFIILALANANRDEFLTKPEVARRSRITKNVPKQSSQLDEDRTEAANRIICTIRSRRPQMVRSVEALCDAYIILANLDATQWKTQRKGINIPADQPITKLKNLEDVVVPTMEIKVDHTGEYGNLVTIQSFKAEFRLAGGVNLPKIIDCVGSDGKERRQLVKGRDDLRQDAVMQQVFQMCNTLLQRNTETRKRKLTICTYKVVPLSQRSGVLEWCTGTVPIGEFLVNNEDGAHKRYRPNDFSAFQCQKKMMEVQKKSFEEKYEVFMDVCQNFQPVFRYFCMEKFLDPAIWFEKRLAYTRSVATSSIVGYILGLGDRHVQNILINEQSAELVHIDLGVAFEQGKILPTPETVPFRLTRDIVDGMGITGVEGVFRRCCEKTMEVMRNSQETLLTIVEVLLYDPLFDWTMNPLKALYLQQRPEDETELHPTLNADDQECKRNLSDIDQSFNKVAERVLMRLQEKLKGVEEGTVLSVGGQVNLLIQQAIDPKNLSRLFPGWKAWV
PI3Kδ (His-PIK3CD/PIK3R1, p110 delta/p85 alpha), sequence (O00329 whole entry, species assumed): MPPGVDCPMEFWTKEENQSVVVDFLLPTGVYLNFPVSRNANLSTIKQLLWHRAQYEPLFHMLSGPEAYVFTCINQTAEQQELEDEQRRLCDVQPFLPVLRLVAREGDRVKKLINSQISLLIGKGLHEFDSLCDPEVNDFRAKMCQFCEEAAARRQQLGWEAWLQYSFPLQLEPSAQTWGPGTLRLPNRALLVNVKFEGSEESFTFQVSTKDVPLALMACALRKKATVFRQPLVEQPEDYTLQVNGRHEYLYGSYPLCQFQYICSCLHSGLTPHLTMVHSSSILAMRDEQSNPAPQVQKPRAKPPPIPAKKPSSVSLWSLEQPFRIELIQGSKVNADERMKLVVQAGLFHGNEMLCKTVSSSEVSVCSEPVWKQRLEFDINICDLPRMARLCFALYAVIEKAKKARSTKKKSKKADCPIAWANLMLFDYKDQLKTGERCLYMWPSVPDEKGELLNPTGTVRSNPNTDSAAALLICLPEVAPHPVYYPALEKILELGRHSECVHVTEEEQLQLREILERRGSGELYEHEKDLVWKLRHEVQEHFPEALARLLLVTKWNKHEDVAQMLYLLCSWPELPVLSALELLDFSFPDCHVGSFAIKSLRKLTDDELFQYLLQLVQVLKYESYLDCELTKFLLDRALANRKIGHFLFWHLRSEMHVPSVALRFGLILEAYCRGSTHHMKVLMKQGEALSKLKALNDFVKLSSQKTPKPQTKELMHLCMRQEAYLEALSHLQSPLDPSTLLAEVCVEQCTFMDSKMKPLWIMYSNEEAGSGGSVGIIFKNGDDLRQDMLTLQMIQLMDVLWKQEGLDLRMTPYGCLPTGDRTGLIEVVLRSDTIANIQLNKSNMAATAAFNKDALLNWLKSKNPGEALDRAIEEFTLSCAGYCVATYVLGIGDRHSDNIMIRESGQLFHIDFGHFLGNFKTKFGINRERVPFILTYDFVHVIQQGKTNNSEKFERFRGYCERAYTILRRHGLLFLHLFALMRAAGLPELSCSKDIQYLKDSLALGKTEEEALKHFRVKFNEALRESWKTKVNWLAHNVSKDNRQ
PI3Kδ (His-PIK3CD/PIK3R1, p110 delta/p85 alpha), sequence (P27986 whole entry partner, species assumed): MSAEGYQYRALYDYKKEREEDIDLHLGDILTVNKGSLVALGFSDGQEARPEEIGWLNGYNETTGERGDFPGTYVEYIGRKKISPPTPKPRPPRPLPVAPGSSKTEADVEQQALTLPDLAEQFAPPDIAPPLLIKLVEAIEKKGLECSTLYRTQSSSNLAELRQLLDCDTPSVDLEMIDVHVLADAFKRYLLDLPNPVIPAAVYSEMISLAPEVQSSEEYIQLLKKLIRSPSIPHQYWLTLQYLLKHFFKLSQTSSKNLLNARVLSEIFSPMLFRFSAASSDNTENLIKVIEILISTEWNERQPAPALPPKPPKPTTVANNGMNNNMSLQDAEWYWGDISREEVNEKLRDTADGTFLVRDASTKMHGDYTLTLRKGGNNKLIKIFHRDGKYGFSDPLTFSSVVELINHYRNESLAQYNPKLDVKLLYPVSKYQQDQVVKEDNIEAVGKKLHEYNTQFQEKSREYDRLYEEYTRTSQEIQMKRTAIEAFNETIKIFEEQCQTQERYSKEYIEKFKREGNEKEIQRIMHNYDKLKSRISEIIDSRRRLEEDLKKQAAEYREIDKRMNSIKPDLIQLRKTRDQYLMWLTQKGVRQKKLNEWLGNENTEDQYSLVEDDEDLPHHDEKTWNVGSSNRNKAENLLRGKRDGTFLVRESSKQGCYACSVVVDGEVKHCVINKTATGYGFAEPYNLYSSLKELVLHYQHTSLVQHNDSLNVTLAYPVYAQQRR

Regarding `Cc1cc2c(cc1Nc1ncc3c(n1)n([C@H]1C[C@@H]4CC[C@H]1C4)c(=O)n3C)OCO2` [Compound 46, 9-((1S,2S,4R)-bicyclo[2.2.1]heptan-2-yl)-7-methyl-2-((6-methylbenzo[d][1,3]dioxol-5-yl)amino)-7,9-dihydro-8H-purin-8-one], the 50% inhibitory concentration (IC50) is ≥ 1000 nM against PI3Kβ; ≥ 1000 nM in assay [1] (class symbol); 100 to 1000 nM against ATM (class symbol); < 1 nM at DNA-PK (setting [3]); ≥ 1000 nM in assay [2] (class symbol).

For the molecule `Cc1cc2nccnc2cc1Nc1ncc2c(n1)n(C13CCC(O)(CC1)C3)c(=S)n2C` [Compound 33, 9-(4-hydroxybicyclo[2.2.1]heptan-1-yl)-7-methyl-2-((7-methylquinoxalin-6-yl)amino)-7,9-dihydro-8H-purine-8-thione], the IC50 in assay [1] (class symbol) is 10 to 100 nM; against ATM (class symbol), 100 to 1000 nM; against DNA-PK (class symbol), 1 to 10 nM; in assay [2] (class symbol) it was 100 to 1000 nM.

Regarding `Cc1cc2nsnc2cc1Nc1ncc2c(C)nn(C34CC(C3)C4)c2n1` [Compound 50, N-(1-(bicyclo[1.1.1]pentan-1-yl)-3-methyl-1H-pyrazolo[3,4-d]pyrimidin-6-yl)-6-methylbenzo[c][1,2,5]thiadiazol-5-amine], the 50% inhibitory concentration (IC50) in assay [1] (class symbol) is ≥ 1000 nM; on ATM (class symbol), 10 to 100 nM; on DNA-PK (setting [3]), < 1 nM; in assay [2] (class symbol), ≥ 1000 nM.

For the molecule `Cc1cc2nsnc2cc1Nc1ncc2c(n1)n(C13CC(F)(C1)C3)c(=O)n2C` [Compound 14, 9-(3-fluorobicyclo[1.1.1]pentan-1-yl)-7-methyl-2-((6-methylbenzo[c][1,2,5]thiadiazol-5-yl)amino)-7,9-dihydro-8H-purin-8-one], the IC50 in assay [1] (class symbol) was ≥ 1000 nM; against ATM (class symbol) it was 100 to 1000 nM; on DNA-PK (setting [3]) it was < 1 nM; in assay [2] (class symbol), 100 to 1000 nM.

For the molecule `COC12CCC(n3c(=O)n(C)c4cnc(Nc5cn6ncnc6cc5C)nc43)(CC1)CC2` [Compound 25, 9-(4-methoxybicyclo[2.2.2]octan-1-yl)-7-methyl-2-((7-methyl-[1,2,4]triazolo[1,5-a]pyridin-6-yl)amino)-7,9-dihydro-8H-purin-8-one], the half-inhibitory concentration (IC50) in assay [1] (class symbol) is 100 to 1000 nM; against ATM (class symbol) it was 1 to 10 nM; at DNA-PK (setting [3]), < 1 nM; in assay [2] (class symbol) it was 100 to 1000 nM.

`Cc1cc2ncnn2cc1Nc1ncc2c(C)nn(C34CC(C3)C4)c2n1` [Compound 47, 1-(bicyclo[1.1.1]pentan-1-yl)-3-methyl-N-(7-methyl-[1,2,4]triazolo[1,5-a]pyridin-6-yl)-1H-pyrazolo[3,4-d]pyrimidin-6-amine]: the half-inhibitory concentration (IC50) in assay [1] (class symbol) was ≥ 1000 nM; against ATM (class symbol) it was 100 to 1000 nM; against DNA-PK (class symbol), 1 to 10 nM; in assay [2] (class symbol), ≥ 1000 nM.

Take `COC12CCC(N3CC(=O)N(C)c4cnc(Nc5cc6nsnc6cc5C)nc43)(CC1)C2` [Compound 64, 8-(4-methoxybicyclo[2.2.1]heptan-1-yl)-5-methyl-2-((6-methylbenzo[c][1,2,5]thiadiazol-5-yl)amino)-7,8-dihydropteridin-6(5H)-one]: the IC50 in assay [1] (class symbol) was 100 to 1000 nM; on ATM (class symbol), 1 to 10 nM; at DNA-PK (setting [3]) it was < 1 nM; in assay [2] (class symbol) it was 10 to 100 nM.

Consider `Cc1cc2ncnn2cc1Nc1ncc2c(n1)n(C13CCC(O)(CC1)CC3)c(=O)n2C` [Compound 78, 9-(4-hydroxybicyclo[2.2.2]octan-1-yl)-7-methyl-2-((7-methyl-[1,2,4]triazolo[1,5-a]pyridin-6-yl)amino)-7,9-dihydro-8H-purin-8-one], for which the IC50 in assay [1] (class symbol) is 100 to 1000 nM; in assay [1] (numeric value), 214 nM; against ATM (class symbol) it was 10 to 100 nM; at ATM (read-out: ATM HTRF 10 μM ATP IC50, numeric value), 36 nM; on DNA-PK (class symbol), < 1 nM; at DNA-PK (read-out: DNA-PK HotSpot 10 μM ATP IC50, numeric value), 0.71 nM. The IC50 in assay [2] (class symbol) is 100 to 1000 nM; in assay [2] (numeric value), 152 nM.

Turning to `Cc1cc(-c2cnco2)ncc1Nc1ncc2c(n1)N(C13CC(F)(C1)C3)C(=O)C21CC1` [Compound 74, 7′-(3-fluorobicyclo[1.1.1]pentan-1-yl)-2′-((4-methyl-6-(oxazol-5-yl)pyridin-3-yl)amino)spiro[cyclopropane-1,5′-pyrrolo[2,3-d]pyrimidin]-6′(7′H)-one], the IC50 is ≥ 1000 nM in assay [1] (class symbol), 10 to 100 nM against ATM (class symbol), 1 to 10 nM against DNA-PK (class symbol) and 100 to 1000 nM in assay [2] (class symbol).

Turning to `Cc1cc2nsnc2cc1Nc1ncc2c(n1)n(C13CCC(O)(CC1)C3)c(=O)n2C` [Compound 3, 9-(4-hydroxybicyclo[2.2.1]heptan-1-yl)-7-methyl-2-((6-methylbenzo[c][1,2,5]thiadiazol-5-yl)amino)-7,9-dihydro-8H-purin-8-one], the IC50 in assay [1] (class symbol) is ≥ 1000 nM; on ATM (class symbol) it was 1 to 10 nM; on DNA-PK (setting [3]), < 1 nM; in assay [2] (class symbol) it was 10 to 100 nM.

On to `Cc1cc2ncnn2cc1Nc1ncc2c(n1)N(C13CCC(O)(CC1)C3)CC(=O)N2C` [Compound 51, 8-{4-Hydroxybicyclo[2.2.1]heptan-1-yl}-5-methyl-2-({7-methyl-[1,2,4]triazolo[1,5-a]pyridin-6-yl}amino)-5,6,7,8-tetrahydropteridin-6-one], for which the IC50 in assay [1] (class symbol) was in the range of 100 to 1000 nM; at ATM (class symbol), 100 to 1000 nM; against DNA-PK (class symbol), 1 to 10 nM; in assay [2] (class symbol), 100 to 1000 nM.

Consider `Cc1cc2nsnc2cc1Nc1ncc2c(n1)N(C13CC(F)(C1)C3)C(=O)C21CC1` [Compound 73, 7′-(3-fluorobicyclo[1.1.1]pentan-1-yl)-2′-((6-methylbenzo[c][1,2,5]thiadiazol-5-yl)amino)spiro[cyclopropane-1,5′-pyrrolo[2,3-d]pyrimidin]-6′(7′H)-one], for which the half-inhibitory concentration (IC50) in assay [1] (class symbol) was ≥ 1000 nM; on ATM (read-out: ATM HTRF 10 μM ATP IC50, class symbol) it was ≥ 1000 nM; on DNA-PK (setting [3]), < 1 nM; in assay [2] (class symbol), 100 to 1000 nM.

On to `COCC12CC(n3c(=O)n(C)c4cnc(Nc5cn6ncnc6cc5C)nc43)(C1)C2` [Compound 20, 9-(3-(methoxymethyl)bicyclo[1.1.1]pentan-1-yl)-7-methyl-2-((7-methyl-[1,2,4]triazolo[1,5-a]pyridin-6-yl)amino)-7,9-dihydro-8H-purin-8-one], for which the IC50 is ≥ 1000 nM in assay [1] (class symbol), 1 to 10 nM on ATM (class symbol), 1 to 10 nM against DNA-PK (class symbol) and 100 to 1000 nM in assay [2] (class symbol).

Take `Cc1cc(-c2cnn(C)c2)c(F)cc1Nc1ncc2c(n1)n(C13CCC(O)(CC1)C3)c(=O)n2C` [Compound 37, 2-((5-fluoro-2-methyl-4-(1-methyl-1H-pyrazol-4-yl)phenyl)amino)-9-(4-hydroxybicyclo[2.2.1]heptan-1-yl)-7-methyl-7,9-dihydro-8H-purin-8-one]: the concentration for half-maximal inhibition (IC50) is ≥ 1000 nM in assay [1] (class symbol), 1 to 10 nM at ATM (class symbol), < 1 nM on DNA-PK (setting [3]) and 100 to 1000 nM in assay [2] (class symbol).

Consider `Cc1cc2nccnc2cc1Nc1ncc2c(n1)n(C13CC(F)(C1)C3)c(=O)n2C` [Compound 15, 9-(3-fluorobicyclo[1.1.1]pentan-1-yl)-7-methyl-2-((7-methylquinoxalin-6-yl)amino)-7,9-dihydro-8H-purin-8-one], for which the 50% inhibitory concentration (IC50) is ≥ 1000 nM in assay [1] (class symbol), 100 to 1000 nM against ATM (class symbol), 1 to 10 nM against DNA-PK (class symbol) and 100 to 1000 nM in assay [2] (class symbol).

Regarding `Cc1cc2ncccc2cc1Nc1ncc2c(n1)N(C13CC(F)(C1)C3)C(=O)C21CC1` [Compound 71, 7′-(3-fluorobicyclo[1.1.1]pentan-1-yl)-2′-((7-methylquinolin-6-yl)amino)spiro[cyclopropane-1,5′-pyrrolo[2,3-d]pyrimidin]-6′(7′H)-one], the IC50 in assay [1] (class symbol) is ≥ 1000 nM; against ATM (class symbol), 100 to 1000 nM; at DNA-PK (setting [3]) it was < 1 nM; in assay [2] (class symbol) it was 100 to 1000 nM.
